Assay type in all cases: cell-based, mouse
Assay [1] relates to NIH-3T3 cells. In words: Western blot of NIH-3T3 cells (collagen I, GCN2, ATF4, PC). The note with it: for rescue of TGFβ-induced collagen I depletion: metabolite, 48 hours. An excerpt: (§1) PSCs were isolated from C57BL/6 mice by differential centrifugation as previously described^49 and their mesenchymal origin was validated by analyzing the expression of various mesenchymal and epithelial markers. MFBs were isolated from FVB/N mice by differential centrifugation as previously described^50. DB7 mouse breast cancer cells were obtained from Alexander Borowsky (University of California Davis Comprehensive Cancer Center, Sacramento, CA, USA) through an MTA to Ohio State University (OSU). KPC (Kras^LSL-G12D; Trp53^LSL-R172H; Pdx1-Cre) mouse PDAC cells were a gift from Scott Lowe (Memorial Sloan Kettering Cancer Center. (MSKCC)). All cells were cultured at 37° C. in 5% carbon dioxide (CO2) and 20% oxygen (O2) and were maintained in Dulbecco's Modified Eagles medium (DMEM) (25 mM D-glucose, 2 mM L-glutamine) supplemented with 10% fetal bovine serum (FBS) (Gemini), 100 units/ml penicillin and 100 μg/ml streptomycin. Primary PSC and MFB cells were kept in culture for no more than ten passages. Experiments with iCAFs and myCAFs were performed as previously described^29. In brief, qPSCs were generated by culturing PSCs in a dome of GFR Matrigel (Corning) in DMEM; iCAFs were generated by culturing PSCs in a dome of GFR Matrigel in DMEM conditioned by KPC cells for 48 h; myCAFs were generated by monolayer culture of PSCs. Differentiation was validated by analyzing the expression of iCAF/myCAF markers^29. For experiments with different glutamine concentrations, cells were seeded in regular DMEM and the medium was changed 5-6 hours later or the following day to glucose and glutamine-free DMEM supplemented with 10% dialyzed FBS (Gemini) and 20 mM D-glucose, 2 mM L-glutamine (100%), 0.4 mM L-glutamine (20%) or 0.2 mM L-glutamine (10%). All media were prepared by the Media Preparation Facility at MSKCC. Cells were verified as mycoplasma-free by the MycoAlert Mycoplasma Detection Kit (Lonza).
Lysates were generated by incubating cells or ground tumors in RIPA buffer (Millipore); […] of cleared lysate were analyzed by SDS-polyacrylamide gel electrophoresis (SDS-PAGE) as previously described^11. […] The following secondary antibodies were used: anti-rabbit horseradish peroxidase (HRP) (1:5,000; GE, NA934V), anti-mouse HRP (1:5,000; GE, NA931). Quantification of band intensities of collagen I relative to […] or vinculin in tumor allograft experiments was performed with Image Lab software v6.0 (Bio-Rad).

For assay [2], the system named is NIH-3T3 cells. Kind of assay: Growth experiments, NIH-3T3 cells. The conditions noted are these: 10% Gln, TGFβ, 0.2, 1 or 5 mM metabolite, 3 days. An excerpt:
NIH-3T3 cells were obtained from ATCC (CRL-1658); 293 T cells were obtained from ATCC (CRL-3216). PSCs were isolated from C57BL/6 mice by differential centrifugation as previously described^49 and their mesenchymal origin was validated by analyzing the expression of various mesenchymal and epithelial markers. MFBs were isolated from FVB/N mice by differential centrifugation as previously described^50. DB7 mouse breast cancer cells were obtained from Alexander Borowsky (University of California Davis Comprehensive Cancer Center, Sacramento, CA, USA) through an MTA to Ohio State University (OSU). KPC (Kras^LSL-G12D; Trp53^LSL-R172H; Pdx1-Cre) mouse PDAC cells were a gift from Scott Lowe (Memorial Sloan Kettering Cancer Center. (MSKCC)). All cells were cultured at 37° C. in 5% carbon dioxide (CO2) and 20% oxygen (O2) and were maintained in Dulbecco's Modified Eagles medium (DMEM) (25 mM D-glucose, 2 mM L-glutamine) supplemented with 10% fetal bovine serum (FBS) (Gemini), 100 units/ml penicillin and 100 μg/ml streptomycin. Primary PSC and MFB cells were kept in culture for no more than ten passages. Experiments with iCAFs and myCAFs were performed as previously described^29. In brief, qPSCs were generated by culturing PSCs in a dome of GFR Matrigel (Corning) in DMEM; iCAFs were generated by culturing PSCs in a dome of GFR Matrigel in DMEM conditioned by KPC cells for 48 h; myCAFs were generated by monolayer culture of PSCs. Differentiation was validated by analyzing the expression of iCAF/myCAF markers^29. For experiments with different glutamine concentrations, cells were seeded in regular DMEM and the medium was changed 5-6 hours later or the following day to glucose and glutamine-free DMEM supplemented with 10% dialyzed FBS (Gemini) and 20 mM D-glucose, 2 mM L-glutamine (100%), 0.4 mM L-glutamine (20%) or 0.2 mM L-glutamine (10%). All media were prepared by the Media Preparation Facility at MSKCC. Cells were verified as mycoplasma-free by the MycoAlert Mycoplasma Detection Kit (Lonza).
A total of 0.2×10^5 cells/well were plated in 24-well culture plates and media was changed and treatments started 5-6 hours later. Cell numbers at the start of treatment (day 0 “d 0”) and 1, 2 and 3 days later were counted using the Multisizer 4e (Beckman) and normalized to the cell number at d 0. In co-culture assays, a fraction of the cell population was analyzed by flow cytometry for GFP expression, and the rest counted with the Multisizer 4e. The number of KPC-GFP cells was determined by multiplying the fraction of GFP+ cells with the total number of cells.

Assay [3] deals with NIH-3T3 cells. In words: tRNA charging assay, NIH-3T3 cells. The conditions noted are these: 10% Gln, TGFβ 2 ng/mL, dm-αKG 5 mM with or without MSO 2 mM, 48 hours (FIG. 2A). The protocol: Charging status of the indicated tRNA isodecoders was measured as previously described^20. In brief, Trizol-chloroform extracts were precipitated with 2.7× volumes of cold ethanol in the presence of 30 μg GlycoBlue (ThermoFisher) overnight. Samples were resuspended in 0.3 M acetate buffer (pH 4.5) with 10 mM ethylenediamine tetraacetic acid (EDTA) and precipitated overnight. Samples were resuspended in 10 mM acetate buffer with 1 mM EDTA. 2 μg of each RNA sample was treated with 10 mM of either sodium periodate (Sigma) (‘oxidized sample’) or sodium chloride (‘non-oxidized sample’) and incubated for 20 minutes at room temperature in the dark. Reactions were quenched with glucose for 15 minutes. Yeast Phe-tRNA (Sigma) was spiked into each sample, followed by ethanol precipitation. Samples were resuspended in 50 mM Tris buffer (pH 9) and incubated for 50 minutes at 37° C., quenched with acetate buffer and precipitated. […] Reverse transcription was performed with SuperScript IV reverse transcriptase (Thermo Scientific) according to the manufacturer's instructions, with a primer complementary to the DNA adaptor. cDNA samples were subjected to qPCR with tRNA isodecoder-specific primer pairs listed in Supplementary Table 1. Ct values obtained with primers specific for yeast Phe-tRNA were subtracted from Ct values obtained with isodecoder-specific primers. The charged fraction was calculated based on the relative difference between the delta-Ct value of a non-oxidized (representing total) and oxidized (representing charged) sample for each primer pair.

For assay [4], the system named is pancreatic stellate cells (PSCs). In words: Western blot of PSCs. The note with it: TGFβ-treated PSCs, low glutamine, MSO (FIGS. 9A-9B).
Excerpt: as §1, with “For experiments with different glutamine concentrations, cells were seeded in regular DMEM and the medium was changed 5-6 hours later or the following day to glucose and glutamine-free DMEM supplemented with 10% dialyzed FBS (Gemini) and 20 mM D-glucose, 2 mM L-glutamine (100%), 0.4 mM L-glutamine (20%) or 0.2 mM L-glutamine (10%). All media were prepared by the Media Preparation Facility at MSKCC. Cells were verified as mycoplasma-free by the MycoAlert Mycoplasma Detection Kit (Lonza).” left out
Lysates were generated by incubating cells or ground tumors in RIPA buffer (Millipore); […] of cleared lysate were analyzed by SDS-polyacrylamide gel electrophoresis (SDS-PAGE) as previously described^11. […] Quantification of band intensities of collagen I relative to […] or vinculin in tumor allograft experiments was performed with Image Lab software v6.0 (Bio-Rad).

The test system of assay [5] is NIH-3T3 cells. In words: Translation assay (OPP), NIH-3T3 cells. The conditions noted are these: cells expressing human PC cDNA, 10% Gln, TGFβ, MSO 48 hours (FIG. 3K). As to the method:
Cells were treated as indicated and incubated with 20 μM O-propargyl-puromycin (OPP, Thermo Scientific) for the last 1 hour of the experiment. Cells were harvested by trypsinization and fixed with methanol at −20° C., followed by permeabilization with 0.5% Triton X-100 in phosphate-buffered saline (PBS).

Assay [6] relates to NIH-3T3 cells. In words: Collagen abundance in ECM derived from confluent NIH-3T3 cells. The conditions noted are these: low glutamine and low glucose medium (FIGS. 12E and 12F). The protocol:
Culture plates were coated with 0.1% gelatin (Sigma) and treated with 1% glutaraldehyde (Sigma) and 1 M ethanolamine (Sigma). Confluent NIH-3T3 cells, MFBs or PSCs were grown for 6 days on coated plates in the presence of […] sodium ascorbate (Sigma) and treated as indicated, and the medium was replaced every other day. Plates were decellularized with 20 mM ammonium hydroxide/0.5% Triton-X 100 for 5 min on a rotating platform. Three times the volume of PBS was added, and ECM was equilibrated overnight at 4° C., followed by four additional PBS washes. For western blot, preheated sample buffer supplemented with 1 mM dithiothreitol (DTT) was added, ECM was scraped off and boiled, and proteins were separated by SDS-PAGE followed by immunoblotting. To measure collagen abundance, fibroblast-derived ECM was stained with the Picro Sirius Red Stain Kit (Abcam) according to the manufacturer's instructions. The stain was extracted with 0.1 M sodium hydroxide (NaOH) and optical density was measured at 550 nm using a microplate reader. Differences in cell number were controlled for by growing cells on separate plates under the same experimental conditions.

Setting [7] is: concentrations relevant in vivo (10 mM lactate, 0.1 mM pyruvate), low glutamine and low glucose (FIG. 6E).

Here are results for six compounds from patent US20260152533A1, “COMBINATION INHIBITORS FOR TREATING FIBROSIS” (Memorial Sloan-Kettering Cancer Center, priority 2021, published 2026).

SMILES strings stand for the structures.

`NC(=O)C[C@H](N)C(=O)O` [Asparagine, asparagine]: the “rescue of TGFβ-induced collagen I depletion” value in the assay on NIH-3T3 cells [1] (10% Gln) is on record as “did not rescue”. Besides, the “rescue of TGFβ-induced growth defect” value with NIH-3T3 cells [2] is given as “did not rescue”.
Regarding `CC(=O)C(=O)[O-].[Na+]` [Pyruvate, sodium pyruvate], the “collagen 1 levels” value in the assay with NIH-3T3 cells [1] (setting [7]) is given as “only lactate supplementation increased”. In addition, the “potency to increase collagen 1 levels, relative” value in the assay with NIH-3T3 cells [1] (low glutamine and low glucose (FIG. 6E)) was “more potent than lactate”.
For the compound `CS(=N)(=O)CC[C@H](N)C(=O)O` (stereo partly drawn) [MSO, methionine sulfoximine], in the assay with NIH-3T3 cells [3], the “charging of glutamine-tRNA” value is recorded as “blocked”. For the same compound, in the assay on NIH-3T3 cells [1] (PC-deleted cells, 10% Gln, dm-αKG plus MSO, 48 hours (FIG. 4I)), the “restoration of collagen I levels by dm-αKG” value is “unable to restore”. In addition, the “restoration of collagen levels by dm-Glu and dm-αKG” value with NIH-3T3 cells [1] (TGFβ-treated NIH-3T3 cells, low glutamine, MSO (FIGS. 2C-2E)) is “prevented”; in assay [4], “prevented”. The “collagen I synthesis” value in the assay on NIH-3T3 cells [1] (low Gln (10%), no TGFβ, MSO 48 hours (FIG. 2J)) was “unable to maintain”. Besides, in the assay on NIH-3T3 cells [5], the “increase of protein translation by PC overexpression” value is “blocked”.
Take `CC(O)C(=O)[O-].[Na+]` (stereo not drawn) [lactate, sodium lactate]: the “ability of extracellular lactate to rescue collagen I” value with NIH-3T3 cells [1] (Ctrl or PC sgRNA cells, low glutamine and low glucose (FIG. 6H)) is “PC-dependent”. In addition, the “collagen 1 levels” value is “increased” with NIH-3T3 cells [1] (setting [7]); “increased” in the assay with NIH-3T3 cells [1] (low glutamine (10%) and low glucose (1 mM), 48 hours (FIG. 6E)). Besides, in the assay with NIH-3T3 cells [6], the “collagen levels in the ECM produced by confluent fibroblasts” value was “increased”.
Take `O=C(O)[C@@H]1CCCN1` [proline]: the “rescue of TGFβ-induced collagen I depletion” value in the assay on NIH-3T3 cells [1] (10% Gln) is given as “did not rescue”. In the assay on NIH-3T3 cells [2], the “rescue of TGFβ-induced growth defect” value is “did not rescue”.
Take `COC(=O)[C@@H]1CCCN1` [m-Pro, L-proline-methylester, reference compound]: the “rescue of TGFβ-induced collagen I depletion” value in the assay on NIH-3T3 cells [1] (10% Gln) was “not”. For the same compound, in the assay with NIH-3T3 cells [2], the “rescue of TGFβ-induced growth defect” value is reported as “not”.
